# According to the supplement of paper PMC10307832:
# What was measured:
# Assay in all cases: relative viability (nuclei count vs DMSO), 5 days (fraction); higher = more cells survive
# [1] = compound: CC(C)=CC[C@@H](O)C1=CC(=O)c2c(O)ccc(O)c2C1=O [Shikonin] + Cc1nc(Nc2ncc(C(=O)Nc3c(C)cccc3Cl)s2)cc(N2CCN(CCO)CC2)n1 [Dasatinib] (partner 0.075 µM)
# Procedure, shortened: (§1)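 The day after seeding in 1536-well plates, lung cancer cell lines were treated by pin tool with a single drug, or with a fixed anchor-drug dose together with five library-drug doses (not always all listed) in √10 steps. After 5 days, a combined fix-and-stain solution (final 0.05% Triton X-100, 1% formaldehyde, 1 ug/ml Hoechst) was added. Nuclei counted on 4× images gave relative viability as treated counts over vehicle counts, reported as the median of duplicate plates.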
# [2] = compound: CC(C)N(CCCNC(=O)Nc1ccc(C(C)(C)C)cc1)C[C@H]1O[C@@H](n2ccc3c(N)ncnc32)[C@H](O)[C@@H]1O + COc1cccc2cc(-c3nc([C@H]4CC[C@H](C(=O)O)CC4)n4ncnc(N)c34)[nH]c12 [OSI-027] (partner 0.5 µM)
# Procedure, shortened: as §1
# [3] = compound: CC(C)N(CCCNC(=O)Nc1ccc(C(C)(C)C)cc1)C[C@H]1O[C@@H](n2ccc3c(N)ncnc32)[C@H](O)[C@@H]1O + O=C(CCCCCCC(=O)Nc1ccccc1)NO [Vorinostat] (partner 1 µM)
# Procedure, shortened: as §1
# [4] = compound: CC(C)N(CCCNC(=O)Nc1ccc(C(C)(C)C)cc1)C[C@H]1O[C@@H](n2ccc3c(N)ncnc32)[C@H](O)[C@@H]1O + Cc1nc(NC(=O)N2CCC[C@H]2C(N)=O)sc1-c1ccnc(C(C)(C)C(F)(F)F)c1 [Alpelisib] (partner 2 µM)
# Procedure, shortened: as §1
Cell Line,relative viability ([1]; first compound 0.01 µM),relative viability ([1]; first compound 0.1 µM),relative viability ([1]; first compound 0.3162 µM),relative viability ([1]; first compound 1 µM),relative viability ([2]; first compound 0.08 µM),relative viability ([2]; first compound 0.253 µM),relative viability ([2]; first compound 0.8 µM),relative viability ([2]; first compound 2.53 µM),relative viability ([2]; first compound 8 µM),relative viability ([3]; first compound 0.08 µM),relative viability ([3]; first compound 0.253 µM),relative viability ([3]; first compound 0.8 µM),relative viability ([3]; first compound 2.53 µM),relative viability ([3]; first compound 8 µM),relative viability ([4]; first compound 0.08 µM),relative viability ([4]; first compound 0.253 µM),relative viability ([4]; first compound 0.8 µM),relative viability ([4]; first compound 2.53 µM),relative viability ([4]; first compound 8 µM)
NCI-H2342,0.334,0.314,0.295,0.325,0.736,0.643,0.611,0.61,0.607,0.708,0.744,0.669,0.778,0.775,,,,,
HCC-15,0.637,0.799,0.66,0.65,0.641,0.815,0.6,0.812,0.655,0.92,0.806,0.888,0.818,0.793,0.79,0.863,0.891,0.93,0.811
A-427,0.877,0.801,0.721,0.658,0.439,0.492,0.535,0.502,0.478,0.839,0.912,0.875,0.901,0.9,1.08,1.03,1.11,1.1,1.18
NCI-H23,0.643,0.883,0.78,0.944,0.594,0.596,0.574,0.681,0.645,0.582,,0.557,0.639,0.549,0.687,,0.695,0.684,0.668
NCI-H1734,0.512,0.499,0.538,0.477,0.563,0.612,0.627,0.564,0.6,0.773,0.611,0.677,0.783,0.756,0.665,0.665,0.636,0.723,0.713
NCI-H520,0.294,0.218,0.2,0.189,0.181,0.248,0.235,0.348,0.267,0.849,0.711,0.801,0.753,0.843,0.796,0.879,0.758,0.789,0.861
RERF-LC-KJ,0.991,0.975,0.834,0.661,0.551,0.624,0.679,0.529,0.453,0.638,0.741,0.551,0.742,0.707,0.826,0.757,0.868,0.838,0.815
NCI-H1915,0.316,0.35,0.3,0.341,0.58,0.732,0.651,0.645,0.624,0.495,0.582,0.483,0.475,0.485,1.07,1.05,0.974,1.05,0.968
NCI-H1666,0.809,0.873,0.882,0.857,0.745,1.04,0.611,0.829,0.755,1.1,1,1.02,1.01,0.934,0.888,0.825,0.895,0.943,1.02
HCC-366,0.629,1.12,0.673,0.706,0.916,1.27,0.716,0.816,0.641,0.439,0.303,0.182,0.357,0.291,0.394,0.442,0.366,0.367,0.41
SK-MES-1,0.26,0.453,0.323,0.375,0.615,0.685,0.586,0.619,0.586,1.04,1.13,0.867,1.1,1.06,0.992,0.897,0.754,0.945,0.838
NCI-H1993,0.537,0.489,0.645,0.361,0.521,,,0.578,0.56,0.663,,0.661,0.748,0.818,0.696,0.786,0.619,0.675,0.751
NCI-H838,0.314,0.284,0.262,0.333,0.359,0.408,0.367,0.388,0.476,0.683,0.744,0.784,0.755,0.672,0.983,0.804,1.04,1.03,0.99
SK-LU-1,0.164,0.191,0.182,0.186,0.372,0.424,0.352,0.405,0.338,0.742,0.775,0.87,0.87,0.736,1.22,1.15,1.28,1.16,1.01
NCI-H1623,0.475,0.541,0.569,0.635,0.446,0.469,0.529,0.422,0.437,,,,,,,,,,
Calu-6,,,,,,,,,,,,,,,0.987,1.01,1.02,1.09,0.984
LC-2-ad,0.528,0.586,0.418,0.893,0.845,0.823,0.892,0.816,0.855,0.666,0.784,0.55,0.722,0.671,0.802,0.83,0.992,0.823,0.806
CAL-12T,0.557,0.333,0.356,0.302,0.603,0.498,0.635,0.579,0.53,0.788,0.76,0.965,0.644,0.578,1.02,1.32,1.26,1,1
